US11766446B2, “Treatment of aging-associated conditions by DNA degradation” (The General Hospital Corporation, priority 2018, dated 2023)

Legend:
Type in all cases: cell-based, human
MRC5 cells [1] = assay: Immunofluorescence anti-dsDNA staining of nuclear and cytosolic DNA in young and old MRC5 cells; conditions: 24 hr
Experimental: Cells were cultured in Lab-Tek II 8-well chamber slides, fixed with 4% PFA (10 min), permeabilized with 0.5% Triton X-100 (5 min), then blocked and stained with antibodies against: dsDNA (Santa Cruz, 1:500), 7H2AX, NUP98, pTBK1 (both Cell Signaling, 1:200), LC3 (Novus Biologicals, 1:200) or biotin-LAMP1 (BioLegend, 1:200), followed by fluorescent secondary antibodies (45 min). Methanol fixation was used for anti-pIRF3 (Cell Signaling, 1:200) staining.
Nuclear and cytosolic DNA signals from 5 of 10× or 20× images (˜50-200 cells per image) were quantified using Fiji. Region of interest (ROI) was defined in each image and threshold set to measure fluorescence above background. Nuclear ROI was defined by DAPI staining and its intensity subtracted from total fluorescence to determine cytoplasmic signal. Quantitative fluorescence was presented as integrated density per cell with cell number determined by particle count of DAPI.

MRC5 cells [2] = assay: RT-qPCR expression of IFNI-inducible, inflammatory and cell-cycle genes in young and old cells; conditions: old MRC5 cells
Experimental: 0.25-1 μg of total RNA was reverse-transcribed with High Capacity cDNA Reverse Transcription kit (Applied Biosystems). Quantitative PCR was then performed using LightCyler® 480 SYBR Master I reagents (Roche) on LightCyler® 96 instrument. Transcript levels were normalized to B2M or GAPDH. Primer pairs used are listed below.

MRC5 cells [3] = assay: TUNEL assay detecting DNA fragmentation (nicked DNA) in young and old MRC5 cells; conditions: Ara-C 10 μM, 24 hr, FIG. 1B
Text: (§1) Ara-C, bafilomycin A1 and rapamycin were from Sigma-Aldrich (St. Louis, Mo.); SA β-gal Staining Kit was from Cell Signaling (Danvers, Mass.); TUNEL Apo-Green detection reaction mixture was from Biomake (Houston, Tex.).

MRC5 cells [4] = assay: SA-β-gal activity staining in young and old MRC5 cells; conditions: aged MRC5 cells; Ara-C 10 μM, 24 h; FIG. 6F
Text: as §1

[5] = bafilomycin 20 nM, 8 hr, FIG. 2F

CCC(=C/[C@H](C)C/C=C/C(C)=C/[C@@H](C)C(=O)[C@@H](C)[C@H](O)[C@@H](C)C/C(C)=C/C(=O)O)/C=C/[C@@H]1OC(=O)C=C[C@@H]1C [leptomycin B]
dsDNA staining in nuclei (anti-dsDNA IF) (MRC5 cells [1]; LMB-treated cells, 20 nM, FIG. 1D): some increase | cytosolic DNA in old cells (anti-dsDNA IF) (MRC5 cells [1]; old MRC5 cells, LMB 20 nM, FIG. 1D): dramatic reduction

CO/C1=C\C(C)=C\[C@@H](C)[C@@H](O)[C@@H](C)C/C(C)=C/C=C/[C@H](OC)[C@@H]([C@@H](C)[C@@H](O)[C@H](C)[C@@]2(O)C[C@@H](O)[C@H](C)[C@@H](C(C)C)O2)OC1=O [bafilomycin A1]
CXCL10 expression (RT-qPCR) (MRC5 cells [2]; [5]): increased levels | MX1 expression (RT-qPCR) (MRC5 cells [2]; [5]): increased levels

Nc1ccn([C@@H]2O[C@H](CO)[C@@H](O)[C@@H]2O)c(=O)n1 [Ara-C, cytarabine]
nuclear DNA in old cells (anti-dsDNA IF) (MRC5 cells [1]; old MRC5 cells, Ara-C 10 μM, FIG. 1C): more nuclear DNA | extranuclear DNA in young cells (anti-dsDNA IF) (MRC5 cells [1]; young MRC5 cells, Ara-C 10 μM, FIG. 1C): more extranuclear DNA | CXCL10 expression (RT-qPCR) (MRC5 cells [2]; Ara-C 10 μM, 24 hr, FIG. 2A): further increased | IL-6 expression (RT-qPCR) (MRC5 cells [2]; Ara-C 10 μM, 24 hr, FIG. 2A): further increased | MX1 expression (RT-qPCR) (MRC5 cells [2]; Ara-C 10 μM, 24 hr, FIG. 2A): further increased | nicked DNA (TUNEL staining) in old cells (MRC5 cells [3]): more intense | percentage of SA-β-gal+ cells (MRC5 cells [4]): further increased
